Assay results as given in patent publication US8853185B2, “Coferons and methods of making and using them” (Cornell University, priority 2008, dated 2014).
Blank lines part the entries; values can stand above or below the compound they belong to.

How the values were obtained:
[1] = Dimerization of linker element precursors in aqueous solution by MS and MS/MS; type: physicochemical
Experimental: The ability of precursors to linker elements to form dimers in aqueous solutions was determined by mass spectrometry (MS) and mass spectrometry/mass spectrometry (MS/MS). Linker elements that form dimers (or multimers) only as a result of the ionization during mass spectrometry can be distinguished from those that truly form dimers in aqueous solution by determination of the fragmentation during mass spectrometry/mass spectrometry.

CDK2 = CDK2 (Homo sapiens, UniProt P24941); conditions: read-out: DISSOCIATION CONSTANT (Kd); cited from earlier work
β CATENIN = target: T1, β CATENIN (Homo sapiens, UniProt P35222); conditions: read-out: DISSOCIATION CONSTANT (Kd); cited from earlier work
T1 sequence (P35222 1-781): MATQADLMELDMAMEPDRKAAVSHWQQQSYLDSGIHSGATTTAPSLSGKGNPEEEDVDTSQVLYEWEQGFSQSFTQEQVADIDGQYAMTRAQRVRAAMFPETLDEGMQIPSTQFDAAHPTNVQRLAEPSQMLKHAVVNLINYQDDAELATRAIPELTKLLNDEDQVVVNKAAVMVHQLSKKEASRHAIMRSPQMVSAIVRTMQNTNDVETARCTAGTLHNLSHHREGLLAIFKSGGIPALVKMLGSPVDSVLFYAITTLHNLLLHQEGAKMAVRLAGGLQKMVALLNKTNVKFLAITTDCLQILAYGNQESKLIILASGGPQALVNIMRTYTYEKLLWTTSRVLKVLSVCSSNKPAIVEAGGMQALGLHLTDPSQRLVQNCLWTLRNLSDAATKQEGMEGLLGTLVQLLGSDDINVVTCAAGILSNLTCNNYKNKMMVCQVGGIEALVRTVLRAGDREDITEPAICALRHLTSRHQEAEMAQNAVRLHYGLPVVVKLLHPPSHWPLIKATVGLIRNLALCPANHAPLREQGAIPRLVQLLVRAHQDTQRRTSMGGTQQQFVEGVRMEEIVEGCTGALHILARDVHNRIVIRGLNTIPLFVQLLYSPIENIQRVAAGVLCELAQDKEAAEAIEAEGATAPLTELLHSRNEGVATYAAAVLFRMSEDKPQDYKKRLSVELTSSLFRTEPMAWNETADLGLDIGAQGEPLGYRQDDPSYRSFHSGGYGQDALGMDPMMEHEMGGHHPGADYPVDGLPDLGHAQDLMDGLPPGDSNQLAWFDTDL

CaMKII = conditions: read-out: DISSOCIATION CONSTANT (Kd); cited from earlier work
MEK1 = MEK1 (Homo sapiens, UniProt Q02750); conditions: read-out: DISSOCIATION CONSTANT (Kd); cited from earlier work
MEK2 = MEK2 (Homo sapiens, UniProt P36507); conditions: read-out: DISSOCIATION CONSTANT (Kd); cited from earlier work
ERK = conditions: read-out: DISSOCIATION CONSTANT (Kd); cited from earlier work
Bcl-xL = Bcl-xL (Homo sapiens, UniProt Q07817); conditions: read-out: DISSOCIATION CONSTANT (Kd); cited from earlier work
Bcl-xL, sequence (Q07817 whole entry, species assumed): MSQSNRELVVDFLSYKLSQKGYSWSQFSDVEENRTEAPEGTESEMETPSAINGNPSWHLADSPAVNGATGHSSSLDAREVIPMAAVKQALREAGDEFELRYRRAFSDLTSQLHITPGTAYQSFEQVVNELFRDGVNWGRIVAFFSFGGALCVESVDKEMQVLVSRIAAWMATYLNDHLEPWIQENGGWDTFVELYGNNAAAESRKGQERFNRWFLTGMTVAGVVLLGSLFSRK

[2] = self-dimerization, MS and MS/MS
[3] = piperidin-2-ylmethanol with cyclohexylboronic acid

ability to form dimers in aqueous solution [1, 2]: exists mostly as the monomer
Compound: O=C(CO)CO [1,3-dihydroxyacetone]

ability to form dimers in aqueous solution [1, 2]: forms a dimer
Compound: O=C1CCCCC1O (stereo not shown) [2-hydroxycyclohexanone]

ability to form dimers in aqueous solution ([1]; with zinc acetate, 2 molecules co-ordinating one Zn cation, MS/MS): form a dimer
Compound: Cc1occc(=O)c1O [3-hydroxy-2-methyl-4H-pyran-4-one]

Compound: Nc1ncnc2c1ncn2[C@@H]1O[C@H](COP(=O)(O)OP(=O)(O)O)[C@@H](O)[C@H]1O [ADP]
Kd (CDK2): 2.7 µM

Compound: Nc1ncnc2c1ncn2[C@@H]1O[C@H](COP(=O)(O)OP(=O)(O)OP(=O)(O)O)[C@@H](O)[C@H]1O [ATP]
Kd (CDK2): 0.227 µM

ability to form dimers in aqueous solution [1, 3]: form a dimer
Compound: OB(O)C1CCCCC1 [cyclohexylboronic acid]

ability to form dimers in aqueous solution [1, 3]: form a dimer
Compound: OCC1CCCCN1 (stereo not shown) [piperidin-2-ylmethanol]

Compound: APC: binding partner of β CATENIN
Kd (β CATENIN): 310 µM

Compound: Calmodulin
Kd (CaMKII): 0.03 µM

Compound: ERK1: binding partner of MEK1
Kd (MEK1): 29 µM

Compound: ERK2: binding partner of MEK2
Kd (MEK2): 9 µM

Compound: MEK1: binding partner of ERK
Kd (ERK): 0.61 µM

Compound: cytochrome c: binding partner of Bcl-xL
Kd (Bcl-xL): 0.12 µM
